Experimental data as given in ChEMBL document CHEMBL4359843, “Linear and Rationally Designed Stapled Peptides Abrogate TLR4 Pathway and Relieve Inflammatory Symptoms in Rheumatoid Arthritis Rat Model” (J Med Chem, 2019).
Active and inactive are the calls of the source. The rule behind the calls is not given here. Where a SMILES comes first, the peptide text is derived from it. Bridges are numbered along the chain shown (N, C = ends).

How the values were obtained:
[1] = biological target: T1, Toll-like receptor 4 (Mus musculus) (UniProt Q9QUK6); assay: Antagonist activity at TLR4 in mouse RAW264.7 cells assessed as reduction in LPS-induced cytosolic ROS level at 50 uM by DCF-DA staining based FACS analysis; type: cell-based
T1 sequence (whole entry): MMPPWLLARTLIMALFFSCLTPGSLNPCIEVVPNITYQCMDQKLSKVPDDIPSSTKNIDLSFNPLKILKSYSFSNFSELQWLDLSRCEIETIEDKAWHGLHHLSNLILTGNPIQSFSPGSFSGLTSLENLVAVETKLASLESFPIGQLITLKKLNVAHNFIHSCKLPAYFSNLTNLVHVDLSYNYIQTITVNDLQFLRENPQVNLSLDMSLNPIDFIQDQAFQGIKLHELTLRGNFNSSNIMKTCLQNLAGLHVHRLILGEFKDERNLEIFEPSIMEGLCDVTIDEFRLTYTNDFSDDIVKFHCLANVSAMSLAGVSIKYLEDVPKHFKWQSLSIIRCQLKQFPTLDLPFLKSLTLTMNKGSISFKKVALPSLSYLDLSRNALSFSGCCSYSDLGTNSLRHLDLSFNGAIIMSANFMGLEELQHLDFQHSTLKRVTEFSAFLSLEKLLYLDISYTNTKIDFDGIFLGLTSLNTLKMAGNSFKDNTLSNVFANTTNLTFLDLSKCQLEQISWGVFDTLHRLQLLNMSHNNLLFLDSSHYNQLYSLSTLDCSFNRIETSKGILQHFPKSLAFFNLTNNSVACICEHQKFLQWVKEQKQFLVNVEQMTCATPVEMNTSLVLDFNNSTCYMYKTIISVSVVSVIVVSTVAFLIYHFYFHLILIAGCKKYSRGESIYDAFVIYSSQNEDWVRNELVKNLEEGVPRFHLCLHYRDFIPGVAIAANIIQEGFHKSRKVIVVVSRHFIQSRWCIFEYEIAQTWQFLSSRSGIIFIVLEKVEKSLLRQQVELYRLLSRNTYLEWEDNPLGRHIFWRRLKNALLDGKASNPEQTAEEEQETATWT

Rattus norvegicus [2] = assay: Antiarthritic activity in Lewis rat model of complete Freund's adjuvant-induced arthritis assessed as regain of normal feet physiology at 1 nmol/g administered intra-articularly into knee joint after 5 to 6 weeks by visual analysis; type: functional, organism-based
Rattus norvegicus [3] = assay: Antiarthritic activity in Lewis rat model of complete Freund's adjuvant-induced arthritis assessed as reduction in ankle diameter at 1 nmol/g administered intra-articularly into knee joint for 6 weeks and measured every week during compound dosing by vernier caliper analysis; type: functional, organism-based
Rattus norvegicus [4] = assay: Antiarthritic activity in Lewis rat model of complete Freund's adjuvant-induced arthritis assessed as increase in cartilage thickness at 1 nmol/g administered intra-articularly into knee joint after 1 week by H and E staining based histopathological analysis; type: functional, organism-based
Rattus norvegicus [5] = assay: Antiarthritic activity in Lewis rat model of complete Freund's adjuvant-induced arthritis assessed as increase in osteocytes within lacunae at 1 nmol/g administered intra-articularly into knee joint after 4 to 6 week by H and E staining based histopathological analysis; type: functional, organism-based
[6] = biological target: T1, Toll-like receptor 4 (Mus musculus); assay: Antagonist activity at TLR4 in mouse BMDM cells assessed as reduction in LPS-induced TNFalpha secretion at 20 to 80 uM after 24 hrs by ELISA; type: cell-based
RAW264.7 = assay: Cytotoxicity against mouse RAW264.7 cells assessed as reduction in cell viability at 100 uM after 24 hrs by MTT assay; type: cell-based; settings: raw264.7, 24 h
[7] = biological target: T1, Toll-like receptor 4 (Mus musculus); assay: Antagonist activity at TLR4 in mouse RAW264.7 cells assessed as reduction in LPS-induced IkappaBalpha cytosolic degradation at 80 uM after 15 to 30 mins by Western blot analysis; type: cell-based
[8] = biological target: T1, Toll-like receptor 4 (Mus musculus); assay: Antagonist activity at TLR4 in mouse RAW264.7 cells assessed as reduction in LPS-induced JNK phosphorylation at 80 uM after 15 to 30 mins by Western blot analysis; type: cell-based
[9] = biological target: T1, Toll-like receptor 4 (Mus musculus); assay: Antagonist activity at TLR4 in mouse RAW264.7 cells assessed as reduction in LPS-induced COX2 expression at 80 uM by Western blot analysis; type: cell-based
[10] = biological target: T1, Toll-like receptor 4 (Mus musculus); assay: Antagonist activity at TLR4 in mouse RAW264.7 cells assessed as reduction in LPS-induced cytosolic NO level at 80 uM by DAF-FM staining based FACS analysis; type: cell-based
[11] = biological target: Toll-like receptor 1/2 (Mus musculus) (UniProt Q9QUN7+Q9EPQ1); assay: Antagonist activity at TLR2/1 in mouse RAW264.7 cells assessed as reduction in PAM3CSK4-induced TNFalpha secretion at 20 to 80 uM after 24 hrs by ELISA; type: cell-based
TLR2/TLR6 (Homo sapiens) = TLR2/TLR6 (Homo sapiens) (UniProt O60603+Q9Y2C9); assay: Antagonist activity at TLR2/6 in human PBMC cells assessed as reduction in FSL-1-induced TNFalpha secretion at 20 to 80 uM after 24 hrs by ELISA; type: cell-based
[12] = biological target: T1, Toll-like receptor 4 (Mus musculus); assay: Antagonist activity at TLR4 in mouse BMDM cells assessed as reduction in LPS-induced IL6 secretion at 20 to 80 uM after 24 hrs by ELISA; type: cell-based
[13] = biological target: T1, Toll-like receptor 4 (Mus musculus); assay: Antagonist activity at TLR4 in mouse BMDM cells assessed as reduction in LPS-induced extracellular NO secretion by spectrophotometric method; type: cell-based
Mus musculus = assay: Antiinflammatory activity in C57BL/6J mouse assessed as reduction in LPS-induced IL6 secretion at 70 nmol/g, ip pretreated for 1 hr followed by LPS challenge and measured after 2 hrs by ELISA; type: functional, organism-based

| Molecule | Activity [1] | Activity (Rattus norvegicus [2]) | Activity (Rattus norvegicus [3]) | Activity (Rattus norvegicus [4]) | Activity (Rattus norvegicus [5]) | Activity [6] | Activity (RAW264.7) | Activity [7] | Activity [8] | Activity [9] | Activity [10] | Activity [11] | Activity (TLR2/TLR6 (Homo sapiens)) | Activity [12] | Activity [13] | Activity (Mus musculus) |
| --- | --- | --- | --- | --- | --- | --- | --- | --- | --- | --- | --- | --- | --- | --- | --- | --- |
| CC[C@H](C)[C@@H]1NC(=O)[C@H](Cc2c[nH]c3ccccc23)NC(=O)[C@H](Cc2c[nH]c3ccccc23)NC(=O)[C@@H](NC(=O)[C@H](CO)NC(=O)[C@H](Cc2ccccc2)NC(=O)[C@@H](NC(=O)CNC(=O)[C@@H](N)CC(C)C)C(C)C)CC(=O)NCCCC[C@@H](C(=O)N[C@@H](CC(C)C)C(=O)N[C@H](C(=O)O)C(C)C)NC1=O (H-LGVFSDWWIKLV-OH; lactam 6-10) | Active | Active | Active | Active | Active |  |  |  |  |  |  |  |  |  |  |  |
| H-LGVFSSWWIKLV-OH |  |  |  |  |  | Active | Toxic | Active | Active | Active | Active | inactive | inactive | Active | Dose-dependent effect | Active |
